Assay results from ChEMBL document CHEMBL1201862, “PubChem BioAssay data set” (2004).
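In this assay, cells in 96-well plates receive the compound at five concentrations for 48 hours. Endpoints are linearly interpolated between the surrounding concentrations. GI50 = concentration required for 50% inhibition of growth.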 Calls of active or inactive are those of the source. No stated cut-off is given here; in the data, active = GI50 up to about 1.1 µM and inactive = higher.

Tests used:
Experiment in all cases: DTP human tumour cell line panel, 48 h
[1] = system: MDA-MB-231
[2] = system: IGROV-1
[3] = system: HCT-116
[4] = system: MDA-N
[5] = system: OVCAR-4
[6] = system: SK-MEL-2
[7] = system: SNB-75
[8] = system: SF-539
[9] = system: EKVX
[10] = system: SN12C
[11] = system: CAKI-1
[12] = system: RXF 393
[13] = system: KM12
[14] = system: NCI-H226
[15] = system: ACHN
[16] = system: Hs-578T
[17] = system: BT-549
[18] = system: CCRF-CEM
[19] = system: UO-31

| Structure (SMILES) | GI50 [1] | GI50 [2] | GI50 [3] | GI50 [4] | GI50 [5] | GI50 [6] | GI50 [7] | GI50 [8] | GI50 [9] | GI50 [10] | GI50 [11] | GI50 [12] | GI50 [13] | GI50 [14] | GI50 [15] | GI50 [16] | GI50 [17] | GI50 [18] | GI50 [19] |
| --- | --- | --- | --- | --- | --- | --- | --- | --- | --- | --- | --- | --- | --- | --- | --- | --- | --- | --- | --- |
| O=C1Nc2ccccc2C1=Nc1ccc(S(=O)(=O)Nc2nccs2)cc1 | > 100 µM (inactive) | > 100 µM (inactive) | > 100 µM (inactive) | > 100 µM (inactive) | > 100 µM (inactive) | > 100 µM (inactive) | > 100 µM (inactive) | 48.3 µM (inactive) | > 100 µM (inactive) | > 100 µM (inactive) | > 100 µM (inactive) | > 100 µM (inactive) | > 100 µM (inactive) | > 100 µM (inactive) | > 100 µM (inactive) | > 100 µM (inactive) | > 100 µM (inactive) | > 100 µM (inactive) | > 100 µM (inactive) |
| CC1=C(O)C(=O)c2ccccc2C1=O | > 100 µM (inactive) | 80.4 µM (inactive) | > 100 µM (inactive) | 46.7 µM (inactive) | > 100 µM (inactive) | > 100 µM (inactive) | 44.3 µM (inactive) | > 100 µM (inactive) | > 100 µM (inactive) | > 100 µM (inactive) | > 100 µM (inactive) | 34.8 µM (inactive) | 23 µM (inactive) | > 100 µM (inactive) | 58.7 µM (inactive) | 78.2 µM (inactive) | 18.6 µM (inactive) | > 100 µM (inactive) | 21.5 µM (inactive) |
| NCC1CCN(c2nc3ccccc3c3c2CCCC3)CC1 | 5.57 µM (inactive) | 8.85 µM (inactive) | 3.07 µM (inactive) | 2.71 µM (inactive) | 10.5 µM (inactive) | 5.73 µM (inactive) | 4.21 µM (inactive) | 4.65 µM (inactive) | 11.8 µM (inactive) | 9.55 µM (inactive) | 8.61 µM (inactive) | 2.75 µM (inactive) | 4.28 µM (inactive) | 16.7 µM (inactive) | 12.6 µM (inactive) | 20.1 µM (inactive) | 14.2 µM (inactive) | 2.87 µM (inactive) | 5.6 µM (inactive) |
| O=C(O)CC(NC(=O)Nc1ccc([N+](=O)[O-])cc1)C(=O)Nc1ccc([N+](=O)[O-])cc1 (centres undefined) | > 100 µM (inactive) | > 100 µM (inactive) | > 100 µM (inactive) | > 100 µM (inactive) | > 100 µM (inactive) | > 100 µM (inactive) | > 100 µM (inactive) | > 100 µM (inactive) | > 100 µM (inactive) | – | > 100 µM (inactive) | > 100 µM (inactive) | > 100 µM (inactive) | > 100 µM (inactive) | > 100 µM (inactive) | 50.2 µM (inactive) | > 100 µM (inactive) | > 100 µM (inactive) | > 100 µM (inactive) |
| CCOC(=O)c1cn(CC)c2ccc3ccsc3c2c1=O | > 100 µM (inactive) | > 100 µM (inactive) | > 100 µM (inactive) | > 100 µM (inactive) | > 100 µM (inactive) | 75.2 µM (inactive) | 69.5 µM (inactive) | > 100 µM (inactive) | > 100 µM (inactive) | – | > 100 µM (inactive) | > 100 µM (inactive) | > 100 µM (inactive) | > 100 µM (inactive) | > 100 µM (inactive) | > 100 µM (inactive) | > 100 µM (inactive) | > 100 µM (inactive) | > 100 µM (inactive) |
| O=C1Nc2c(Cl)cc(Cl)cc2/C1=N/N=C/c1ccccc1O | 19.8 µM (inactive) | 26.1 µM (inactive) | 17.5 µM (inactive) | 17.4 µM (inactive) | 27.6 µM (inactive) | 19.5 µM (inactive) | 23.5 µM (inactive) | 20.6 µM (inactive) | 11.5 µM (inactive) | 18.3 µM (inactive) | 19.4 µM (inactive) | 21.2 µM (inactive) | 26.4 µM (inactive) | 27.2 µM (inactive) | 29.2 µM (inactive) | 26.5 µM (inactive) | 15.1 µM (inactive) | 21.5 µM (inactive) | 27.6 µM (inactive) |
| CC(=O)N1C(=O)/C(=C\C(=O)c2ccc([N+](=O)[O-])cc2)c2ccccc21 | 35.3 µM (inactive) | 21.4 µM (inactive) | 18 µM (inactive) | 18.8 µM (inactive) | 14.4 µM (inactive) | > 100 µM (inactive) | 21.9 µM (inactive) | 14.4 µM (inactive) | 19.6 µM (inactive) | 16.8 µM (inactive) | 22.5 µM (inactive) | 29.1 µM (inactive) | 19.6 µM (inactive) | > 100 µM (inactive) | 15.3 µM (inactive) | 22.2 µM (inactive) | 20.9 µM (inactive) | 3.94 µM (inactive) | 19 µM (inactive) |
| O=C(c1ccccc1)c1ccc2[nH]c(-c3c(Cl)c(Cl)c(Cl)c(Cl)c3C(=O)N/N=C\C=C\c3ccccc3)nc2c1 | 22.6 µM (inactive) | 34.4 µM (inactive) | 58.6 µM (inactive) | 32.1 µM (inactive) | 26.1 µM (inactive) | 37.1 µM (inactive) | 59.4 µM (inactive) | 61 µM (inactive) | 40.7 µM (inactive) | 31.3 µM (inactive) | 77.4 µM (inactive) | 21.8 µM (inactive) | 61.4 µM (inactive) | 42.8 µM (inactive) | 19.8 µM (inactive) | 52.7 µM (inactive) | 47.1 µM (inactive) | 12 µM (inactive) | 39.5 µM (inactive) |
| NC(CNO)C(=O)O (centres undefined) | > 100 µM (inactive) | > 100 µM (inactive) | > 100 µM (inactive) | > 100 µM (inactive) | > 100 µM (inactive) | > 100 µM (inactive) | > 100 µM (inactive) | > 100 µM (inactive) | > 100 µM (inactive) | > 100 µM (inactive) | > 100 µM (inactive) | > 100 µM (inactive) | > 100 µM (inactive) | > 100 µM (inactive) | > 100 µM (inactive) | > 100 µM (inactive) | > 100 µM (inactive) | – | > 100 µM (inactive) |
| COC(=O)Cc1c2n(c3ccccc13)C(=O)N1c3ccccc3C(CC(=O)OC)C21 (centres undefined) | 17.3 µM (inactive) | 7.41 µM (inactive) | 23 µM (inactive) | > 100 µM (inactive) | 10.7 µM (inactive) | 38.7 µM (inactive) | 7.45 µM (inactive) | 16.1 µM (inactive) | 45.3 µM (inactive) | > 100 µM (inactive) | 21.1 µM (inactive) | 21.2 µM (inactive) | – | > 100 µM (inactive) | 24.4 µM (inactive) | 21.1 µM (inactive) | 25.5 µM (inactive) | > 100 µM (inactive) | 54.5 µM (inactive) |
| O=C(Nc1nc2ccccc2s1)c1cc([N+](=O)[O-])ccc1Cl | > 55.1 µM (inactive) | – | 3.87 µM (inactive) | 3.58 µM (inactive) | 8.39 µM (inactive) | 13.2 µM (inactive) | 13.8 µM (inactive) | 4.73 µM (inactive) | 10.1 µM (inactive) | 9.59 µM (inactive) | 37.6 µM (inactive) | 2.65 µM (inactive) | 3.29 µM (inactive) | 16.9 µM (inactive) | 17 µM (inactive) | 2.88 µM (inactive) | 5.92 µM (inactive) | 0.0107 µM (active) | 6.76 µM (inactive) |
